Measured values reported in US11702429B2, “mTORC modulators and uses thereof” (Aeovian Pharmaceuticals, Inc., priority 2019, dated 2023).
Read-outs that look alike come from different tables or passages of the source.

How the values were obtained:
mTORC1 = target: T1, mTORC1 (Homo sapiens, UniProt P42345+P62942); experiment: Inhibition assay for mTORC1: phosphorylation of pS6K at Thr389, AlphaLISA in PC3 cells; format: cell-based; details: for IC50: read-out: pIC50 mTORC1 (converted)
T1 construct: endogenous in cells; host or cells: PC3 cells (human prostate adenocarcinoma)
Protocol: (§1) The IC50s of the inhibition of mTORC1 and mTORC2 were determined in vitro by determining the phosphorylation of pS6K at position Thr389 (mTORC1 inhibition) and pAkt at Ser473 (mTORC2 inhibition). In vitro studies were performed with AlphaLISA® technology using PC3 cells (Prostate Adenocarcinoma; Human (Homo sapiens)). The cells were seeded in 96 well plates and were treated for 24 hours with the different compounds. […] All analysis were performed using GraphPad Prism 7.0 (GraphPad Software, San Diego, USA).

mTORC2 = target: T2, mTORC2 (Homo sapiens, UniProt P42345+P62942); experiment: Inhibition assay for mTORC2: phosphorylation of pAkt at Ser473, AlphaLISA in PC3 cells; format: cell-based; details: for IC50: read-out: pIC50 mTORC2 (converted)
T2 construct: endogenous in cells; host or cells: PC3 cells (human prostate adenocarcinoma)
T2 sequence (P62942 2-108 limits assumed, other chains not shown): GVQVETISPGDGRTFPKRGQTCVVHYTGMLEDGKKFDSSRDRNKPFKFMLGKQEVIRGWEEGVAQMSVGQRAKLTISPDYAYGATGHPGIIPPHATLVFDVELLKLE
Protocol: as §1

[1] = PC3 cells, treated 24 hours, pS6K Thr389, AlphaLISA, C16 diastereomer mixtures not separated
[2] = PC3 cells, treated 24 hours, pAkt Ser473, AlphaLISA, C16 diastereomer mixtures not separated

Structure (SMILES) | IC50 (mTORC1) | IC50 (mTORC2) | further results
COC1C[C@@H]2CC[C@@H](C)[C@@](O)(O2)C(=O)C(=O)N2CCCCC2C(=O)O[C@H]([C@H](C)C[C@@H]2CC[C@@H](OC(=O)NCCc3c[nH]cn3)[C@H](OC)C2)CC(=O)[C@H](C)/C=C(\C)[C@@H](O)[C@@H](OC)C(=O)[C@H](C)C[C@H](C)/C=C/C=C/C=C/1C (some centres unmarked) [Compound 364] | < 0.316 nM | < 1000 nM | –
COC1C[C@@H]2CC[C@@H](C)[C@@](O)(O2)C(=O)C(=O)N2CCCCC2C(=O)O[C@H]([C@H](C)C[C@@H]2CC[C@@H](OC(=O)NCCOCCOCCOCCOCCO)[C@H](OC)C2)CC(=O)[C@H](C)/C=C(\C)[C@@H](O)[C@@H](OC)C(=O)[C@H](C)C[C@H](C)/C=C/C=C/C=C/1C (some centres unmarked) [Compound 347] | < 0.316 nM | < 1000 nM | –
COCCOC1CC2CCC(C)C(O)(O2)C(=O)C(=O)N2CCCCC2C(=O)OC(C(C)CC2CCC(OCC(O)CO)C(OC)C2)CC(=O)C(C)C=C(C)C(O)C(OC)C(=O)C(C)CC(C)C=CC=CC=C1C (centres unmarked) [Compound 45] | – | – | pIC50 mTORC1 (mTORC1; [1]): A (pIC50 for mTORC1 of >9.5 as A); pIC50 mTORC2 (mTORC2; [2]): B (5 to 6 as B)
COC1CC2CCC(C)C(O)(O2)C(=O)C(=O)N2CCCCC2C(=O)OC(C(C)CC2CCC(OCCCN3CCOC(C)C3)C(OC)C2)CC(=O)C(C)C=C(C)C(O)C(OC)C(=O)C(C)CC(C)C=CC=CC=C1C (centres unmarked) [Compound 310] | < 0.316 nM | < 1000 nM | –
CO[C@@H]1C[C@H](C[C@@H](C)[C@@H]2CC(=O)[C@H](C)/C=C(\C)[C@@H](O)[C@@H](OC)C(=O)[C@H](C)C[C@H](C)/C=C/C=C/C=C(\C)C(OCCCO)C[C@@H]3CC[C@@H](C)[C@@](O)(O3)C(=O)C(=O)N3CCCC[C@H]3C(=O)O2)CC[C@H]1OCCCc1ccccc1 (mixture of isomers) [Compound 67, (1R,9S,12SR,15R,16E,18R,19R,21R,23S,24E,26E,28E,32SR,35R)-1,18-dihydroxy-30-(3-hydroxypropoxy)-19-methoxy-12-[(1R)-2-[(1S,3R,4R)-3-methoxy-4-(3-phenylpropoxy)cyclohexyl]-1-methyl-ethyl]-15,17,21,23,29,35-hexamethyl-11,36-dioxa-4-azatricyclo[30.3.1.0^4,9]hexatriaconta-16,24,26,28-tetraene-2,3,10,14,20-pentone] | – | – | IC50 (mTORC1; [1]): 0.316 to 3.16 nM; IC50 (mTORC2; [2]): > 10000 nM
COC1C[C@@H]2CC[C@@H](C)[C@@](O)(O2)C(=O)C(=O)N2CCCCC2C(=O)O[C@H]([C@H](C)C[C@@H]2CC[C@@H](OC(=O)NCCO)[C@H](OC)C2)CC(=O)[C@H](C)/C=C(\C)[C@@H](O)[C@@H](OC)C(=O)[C@H](C)C[C@H](C)/C=C/C=C/C=C/1C (some centres unmarked) [Compound 362] | < 0.316 nM | < 1000 nM | –
COCCOC1C[C@@H]2CC[C@@H](C)[C@@](O)(O2)C(=O)C(=O)N2CCCC[C@H]2C(=O)O[C@H]([C@H](C)C[C@@H]2CC[C@@H](OCCCN3CCC(C(C)(C)O)CC3)[C@H](OC)C2)CC(=O)[C@H](C)/C=C(\C)[C@@H](O)[C@@H](OC)C(=O)[C@H](C)C[C@H](C)/C=C/C=C/C=C/1C (mixture of isomers) [Compound 74] | – | – | IC50 (mTORC1; [1]): < 0.316 nM; IC50 (mTORC2; [2]): 1000 to 10000 nM
COC1C[C@@H]2CC[C@@H](C)[C@@](O)(O2)C(=O)C(=O)N2CCCCC2C(=O)O[C@H]([C@H](C)C[C@@H]2CC[C@@H](OC(=O)N(CCO)CCO)[C@H](OC)C2)CC(=O)[C@H](C)/C=C(\C)[C@@H](O)[C@@H](OC)C(=O)[C@H](C)C[C@H](C)/C=C/C=C/C=C/1C (stereo partly drawn) [Compound 357, [(1R,2R,4S)-4-[(2R)-2-[(1R,9S,12S,15R,16E,18R,19R,21R,23S,24E,26E,28E,30S,32S,35R)-1,18-dihydroxy-19,30-dimethoxy-15,17,21,23,29,35-hexamethyl-2,3,10,14,20-pentaoxo-11,36-dioxa-4-azatricyclo[30.3.1.0^4,9]hexatriaconta-16,24,26,28-tetraen-12-yl]propyl]-2-methoxy-cyclohexyl] N,N-bis(2-hydroxyethyl)carbamate] | < 0.316 nM | < 1000 nM | –
COC1C[C@@H]2CC[C@@H](C)[C@@](O)(O2)C(=O)C(=O)N2CCCCC2C(=O)O[C@H]([C@H](C)C[C@@H]2CC[C@@H](OCCCOCCO)[C@H](OC)C2)CC(=O)[C@H](C)/C=C(\C)[C@@H](O)[C@@H](OC)C(=O)[C@H](C)C[C@H](C)/C=C/C=C/C=C/1C (some centres unmarked) [Compound 319] | < 0.316 nM | < 1000 nM | –
COC1C[C@@H]2CC[C@@H](C)[C@@](O)(O2)C(=O)C(=O)N2CCCCC2C(=O)O[C@H]([C@H](C)C[C@@H]2CC[C@@H](OC(=O)NCCCN(CCO)CCO)[C@H](OC)C2)CC(=O)[C@H](C)/C=C(\C)[C@@H](O)[C@@H](OC)C(=O)[C@H](C)C[C@H](C)/C=C/C=C/C=C/1C (some centres unmarked) [Compound 358] | < 0.316 nM | < 1000 nM | –
COC1CC(CC(C)C2CC(=O)C(C)C=C(C)C(O)C(OC)C(=O)C(C)CC(C)C=CC=CC=C(C)C(OCCO)CC3CCC(C)C(O)(O3)C(=O)C(=O)N3CCCCC3C(=O)O2)CCC1OCCCN1CCOCC1C (mixture of isomers) [Compound 5] | – | – | IC50 (mTORC1; [1]): < 0.316 nM; IC50 (mTORC2; [2]): > 10000 nM
COCCOC1CC2CCC(C)C(O)(O2)C(=O)C(=O)N2CCCCC2C(=O)OC(C(C)CC2CCC(OCCO)C(OC)C2)CC(=O)C(C)C=C(C)C(O)C(OC)C(=O)C(C)CC(C)C=CC=CC=C1C (centres unmarked) [Compound 40] | – | – | pIC50 mTORC1 (mTORC1; [1]): A (pIC50 for mTORC1 of >9.5 as A); pIC50 mTORC2 (mTORC2; [2]): B (5 to 6 as B)
COC1C[C@@H]2CC[C@@H](C)[C@@](O)(O2)C(=O)C(=O)N2CCCCC2C(=O)O[C@H]([C@H](C)C[C@@H]2CC[C@@H](OC(=O)CN(C)C)[C@H](OC)C2)CC(=O)[C@H](C)/C=C(\C)[C@@H](O)[C@@H](OC)C(=O)[C@H](C)C[C@H](C)/C=C/C=C/C=C/1C (some centres unmarked) [Compound 343] | < 0.316 nM | < 1000 nM | –
COC1C[C@@H]2CC[C@@H](C)[C@@](O)(O2)C(=O)C(=O)N2CCCCC2C(=O)O[C@H]([C@H](C)C[C@@H]2CC[C@@H](OCCCN3CCOCC3)[C@H](OC)C2)CC(=O)[C@H](C)/C=C(\C)[C@@H](O)[C@@H](OC)C(=O)[C@H](C)C[C@H](C)/C=C/C=C/C=C/1C (some centres unmarked) [Compound 322] | < 0.316 nM | < 1000 nM | –
COC1C[C@@H]2CC[C@@H](C)[C@@](O)(O2)C(=O)C(=O)N2CCCCC2C(=O)O[C@H]([C@H](C)C[C@@H]2CC[C@@H](OC(=O)N(C)CCN(C)C)[C@H](OC)C2)CC(=O)[C@H](C)/C=C(\C)[C@@H](O)[C@@H](OC)C(=O)[C@H](C)C[C@H](C)/C=C/C=C/C=C/1C (some centres unmarked) [Compound 359] | < 0.316 nM | < 1000 nM | –

Further lines, with some results ahead:

IC50 (mTORC1) | IC50 (mTORC2) | Structure (SMILES) | further results
0.316 to 3.16 nM | 1000 to 10000 nM | CO[C@@H]1C[C@H](C[C@@H](C)[C@@H]2CC(=O)[C@H](C)/C=C(\C)[C@@H](O)[C@@H](OC)C(=O)[C@H](C)C[C@H](C)/C=C/C=C/C=C(\C)C(OC(C)C)C[C@@H]3CC[C@@H](C)[C@@](O)(O3)C(=O)C(=O)N3CCCCC3C(=O)O2)CC[C@H]1O (stereo partly drawn) [Compound 208, (1R,9S,12S,15R,16E,18R,19R,21R,23S,24E,26E,28E,32S,35R)-1,18-dihydroxy-12-[(1R)-2-[(1S,3R,4R)-4-hydroxy-3-methoxy-cyclohexyl]-1-methyl-ethyl]-30-isopropoxy-19-methoxy-15,17,21,23,29,35-hexamethyl-11,36-dioxa-4-azatricyclo[30.3.1.0^4,9]hexatriaconta-16,24,26,28-tetraene-2,3,10,14,20-pentone] | –
< 0.316 nM | < 1000 nM | COC1C[C@@H]2CC[C@@H](C)[C@@](O)(O2)C(=O)C(=O)N2CCCCC2C(=O)O[C@H]([C@H](C)C[C@@H]2CC[C@@H](OC(=O)NCc3ccccc3)[C@H](OC)C2)CC(=O)[C@H](C)/C=C(\C)[C@@H](O)[C@@H](OC)C(=O)[C@H](C)C[C@H](C)/C=C/C=C/C=C/1C (some centres unmarked) [Compound 355] | –
< 0.316 nM | 1000 to 10000 nM | COCCOC1C[C@@H]2CC[C@@H](C)[C@@](O)(O2)C(=O)C(=O)N2CCCCC2C(=O)O[C@H]([C@H](C)C[C@@H]2CC[C@@H](O)[C@H](OC)C2)CC(=O)[C@H](C)/C=C(\C)[C@@H](O)[C@@H](OC)C(=O)[C@H](C)C[C@H](C)/C=C/C=C/C=C/1C (some centres unmarked) [Compound 220] | –
0.316 to 3.16 nM | 1000 to 10000 nM | CO[C@@H]1C[C@H](C[C@@H](C)[C@@H]2CC(=O)[C@H](C)/C=C(\C)[C@@H](O)[C@@H](OC)C(=O)[C@H](C)C[C@H](C)/C=C/C=C/C=C(\C)C(OCCC3CCOCC3)C[C@@H]3CC[C@@H](C)[C@@](O)(O3)C(=O)C(=O)N3CCCCC3C(=O)O2)CC[C@H]1O (some centres unmarked) [Compound 213] | –
0.316 to 3.16 nM | > 10000 nM | CO[C@@H]1C[C@H](C[C@@H](C)[C@@H]2CC(=O)[C@H](C)/C=C(\C)[C@@H](O)[C@@H](OC)C(=O)[C@H](C)C[C@H](C)/C=C/C=C/C=C(\C)C(OC3COC3)C[C@@H]3CC[C@@H](C)[C@@](O)(O3)C(=O)C(=O)N3CCCCC3C(=O)O2)CC[C@H]1O (some centres unmarked) [Compound 218] | –
< 0.316 nM | < 1000 nM | CO[C@@H]1C[C@H](C[C@@H](C)[C@@H]2CC(=O)[C@H](C)/C=C(\C)[C@@H](O)[C@@H](OC)C(=O)[C@H](C)C[C@H](C)/C=C/C=C/C=C(\C)C(OCCc3ccccc3)C[C@@H]3CC[C@@H](C)[C@@](O)(O3)C(=O)C(=O)N3CCCCC3C(=O)O2)CC[C@H]1O (some centres unmarked) [Compound 211] | –
< 0.316 nM | 1000 to 10000 nM | CO[C@@H]1C[C@H](C[C@@H](C)[C@@H]2CC(=O)[C@H](C)/C=C(\C)[C@@H](O)[C@@H](OC)C(=O)[C@H](C)C[C@H](C)/C=C/C=C/C=C(\C)C(OC[C@@H](O)c3ccccc3)C[C@@H]3CC[C@@H](C)[C@@](O)(O3)C(=O)C(=O)N3CCCCC3C(=O)O2)CC[C@H]1O (some centres unmarked) [Compound 217] | –
